“Also recorded” adds a separate entry of the source.
Tested on: MDA-MB-231 cells
Assay: Confocal laser scanning microscopy of treated cells
Type: cell-based, human
Conditions: MDA-MB-231, 100 μM, 24 hours, α-tubulin / TOTO-3 staining
Procedure: Immunofluorescence was used to examine the morphologic features of breast cancer cells treated with LFM and its analogs. Before the experiment, cells were trypsinized from rapidly growing tissue culture flasks and seeded onto sterile 22 mm^2 coverslips in 6-well culture plates. Cells on coverslips were returned to the incubator for 24 hours prior to treatment. The following day, drugs were added from a stock solution made in DMSO to a final concentration of 100 μM. Final DMSO concentration was 0.1% in both test samples and controls. Cells were returned to a 37° C. incubator for 24 hours before further processing.
At 24 hours, coverslips were fixed in −20° C. methanol for 15 minutes followed by a 15 minute incubation in phosphate buffered saline +0.1% Triton X-100(PBS-Tx). Coverslips were next incubated with a monoclonal antibody against α-tubulin (Sigma Chemical Co, St. Louis, Mo.) at a dilution of 1:1000 for 40 minutes in a humidified chamber at 37° C. Coverslips were washed for 15 minutes in PBS-Tx followed by a 40 min incubation with a goat anti-mouse IgG antibody conjugated to FITC (Amersham Corp., Arlington Heights, Ill.). The coverslips were again rinsed in PBS-Tx and incubated with 5 μM TOTO-3 (Molecular Probes, Eugene Oreg.) for 20 minutes to label the nuclear DNA. […]

SMILES: C/C(O)=C(\C#N)C(=O)Nc1ccc(OC(F)(F)F)cc1 [LFM-A12, α-Cyano-β-hydroxy-β-methyl-N-[4-(trifluoromethoxy)phenyl]-propenamide]
- morphology and microtubular organization of treated cells: much smaller and had an abnormal shape with large cytoplasmic vacuoles; also recorded: marked shrinkage with disruption of microtubules
